Drawing on ChEMBL document CHEMBL3046127, “Homo- and hetero-dimers of inactive organophosphorous group binding at dual sites of AChE” (Bioorg Med Chem Lett, 2011), this text covers mortality and IC50 for 18 compounds.

For one assay, the system named is Tetranychus cinnabarinus. Nature of the assay: Insecticidal activity against Tetranychus cinnabarinus (carmine spider mite) assessed as insect mortality at 300 mg/mL. Format: functional. Details: dose or concentration left out as unconfirmed.
The target of assay [1] is Acetylcholinesterase (Drosophila melanogaster, UniProt P07140). The assay is described as follows: Inhibition of acetylcholinesterase in Drosophila melanogaster brain by Ellman's method. Background: DTNB colorimetry detects thiols as they appear.
Chain of Acetylcholinesterase (Drosophila melanogaster, UniProt P07140) (P07140 whole entry): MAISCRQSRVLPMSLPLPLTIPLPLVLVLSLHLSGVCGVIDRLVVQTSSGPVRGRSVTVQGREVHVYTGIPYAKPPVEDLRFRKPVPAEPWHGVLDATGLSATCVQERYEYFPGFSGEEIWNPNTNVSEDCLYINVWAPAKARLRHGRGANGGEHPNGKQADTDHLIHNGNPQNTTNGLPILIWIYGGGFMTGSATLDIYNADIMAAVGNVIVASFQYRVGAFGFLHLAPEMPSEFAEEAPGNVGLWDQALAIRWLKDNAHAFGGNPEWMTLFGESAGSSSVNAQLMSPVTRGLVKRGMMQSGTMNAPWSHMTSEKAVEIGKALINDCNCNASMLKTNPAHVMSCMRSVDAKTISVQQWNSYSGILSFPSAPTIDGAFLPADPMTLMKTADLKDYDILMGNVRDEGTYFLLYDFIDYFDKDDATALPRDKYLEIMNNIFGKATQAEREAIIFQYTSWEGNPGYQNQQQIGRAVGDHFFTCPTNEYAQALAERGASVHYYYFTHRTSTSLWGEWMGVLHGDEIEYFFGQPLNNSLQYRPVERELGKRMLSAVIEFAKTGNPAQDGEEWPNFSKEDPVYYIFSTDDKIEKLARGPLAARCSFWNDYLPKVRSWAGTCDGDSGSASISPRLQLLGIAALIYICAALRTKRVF
Assay [2] deals with Acetylcholinesterase (Musca domestica, UniProt Q7YWJ9). The assay is described as follows: Inhibition of acetylcholinesterase in Musca domestica (house fly) brain by Ellman's method.
Chain of Acetylcholinesterase (Musca domestica, UniProt Q7YWJ9) (Q7YWJ9 whole entry): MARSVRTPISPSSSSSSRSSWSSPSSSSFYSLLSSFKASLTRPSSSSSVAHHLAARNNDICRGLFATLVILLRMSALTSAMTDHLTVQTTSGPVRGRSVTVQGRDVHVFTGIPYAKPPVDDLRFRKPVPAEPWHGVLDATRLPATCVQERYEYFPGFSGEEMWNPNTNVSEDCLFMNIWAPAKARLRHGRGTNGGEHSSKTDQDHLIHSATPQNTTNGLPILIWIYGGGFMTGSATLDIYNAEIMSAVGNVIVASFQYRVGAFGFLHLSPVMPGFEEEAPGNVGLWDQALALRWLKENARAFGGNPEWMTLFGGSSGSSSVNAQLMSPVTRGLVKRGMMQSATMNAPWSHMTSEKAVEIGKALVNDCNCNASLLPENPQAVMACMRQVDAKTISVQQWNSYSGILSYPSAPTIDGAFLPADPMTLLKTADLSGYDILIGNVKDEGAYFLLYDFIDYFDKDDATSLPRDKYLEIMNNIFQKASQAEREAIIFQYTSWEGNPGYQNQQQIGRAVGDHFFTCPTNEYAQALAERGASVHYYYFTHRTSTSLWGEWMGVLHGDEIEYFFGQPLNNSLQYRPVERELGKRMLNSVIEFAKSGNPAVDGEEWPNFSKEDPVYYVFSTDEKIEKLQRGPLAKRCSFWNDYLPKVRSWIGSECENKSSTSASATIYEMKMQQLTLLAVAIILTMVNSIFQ
For another assay, the system named is Lipaphis erysimi. The assay is described as follows: Insecticidal activity against Lipaphis erysimi (mustard aphids) assessed as insect mortality at 300 mg/mL. Format: functional. Details: dose or concentration left out as unconfirmed. As to conditions: in Brassica.

Regarding `CCOP(=O)(OCC)SCCCCCSP(=O)(OCC)OCC`, the mortality in the assay on Tetranychus cinnabarinus amounted to 85.7%; with Lipaphis erysimi it was 42.6%. The IC50 at Acetylcholinesterase [1] came to 12.3 µM; on Acetylcholinesterase [2] it was 4600 µM.
With `CCOP(=O)(OCC)SCCCCCCCN1C(=O)c2ccccc2C1=O`, the mortality in the assay with Tetranychus cinnabarinus worked out at 89.3%; in the assay on Lipaphis erysimi it was 88%. Further, the IC50 against Acetylcholinesterase [1] worked out at 1.84 µM; against Acetylcholinesterase [2], 2.08 µM.
On to `CCOP(=O)(OCC)SCCCCCCCCCCN1C(=O)c2ccccc2C1=O`, for which the mortality in the assay on Tetranychus cinnabarinus was determined as 92.2%; with Lipaphis erysimi it was 92.8%. For the same compound, the IC50 at Acetylcholinesterase [1] came out at 113 µM; against Acetylcholinesterase [2], 80.9 µM.
As for `CCOP(=O)(OCC)SCCCN1C(=O)c2ccccc2C1=O`, the values for the mortality in the assay with Tetranychus cinnabarinus and with Lipaphis erysimi were 92.9% and 97.8%, respectively. In addition, the results for the IC50 against Acetylcholinesterase [1] and against Acetylcholinesterase [2] were 8.29 µM and 155 µM, respectively.
As for `CCOP(=O)(OCC)SCCCCSP(=O)(OCC)OCC`, the mortality was 82% with Tetranychus cinnabarinus and 89.4% in the assay with Lipaphis erysimi. The IC50 was found to be 8.07 µM against Acetylcholinesterase [1] and 107 µM against Acetylcholinesterase [2].
On to `CCOP(=O)(OCC)SCCCCCCCSP(=O)(OCC)OCC`, for which the mortality with Tetranychus cinnabarinus was 83.3%; with Lipaphis erysimi, 97.3%. Besides, the IC50 against Acetylcholinesterase [1] is 10.2 µM; against Acetylcholinesterase [2] it was 2100 µM.
As to `CCOP(=O)(OCC)SCCCSP(=O)(OCC)OCC`, the mortality with Tetranychus cinnabarinus came to 98.4%; with Lipaphis erysimi, 90.8%. For the same compound, the IC50 was determined as 1.64 µM against Acetylcholinesterase [1] and 32.4 µM at Acetylcholinesterase [2].
Consider `CCOP(=O)(OCC)SCCCCCCCCSP(=O)(OCC)OCC`, for which the mortality in the assay with Tetranychus cinnabarinus came to 87.7%; in the assay with Lipaphis erysimi it was 97.5%. The IC50 against Acetylcholinesterase [1] amounted to 4.84 µM; on Acetylcholinesterase [2], 331 µM.
For the compound `CCOP(=O)(OCC)SCCCCCCN1C(=O)c2ccccc2C1=O`, the results for the mortality in the assay on Tetranychus cinnabarinus and in the assay with Lipaphis erysimi were 87.3% and 100%, respectively. The values for the IC50 on Acetylcholinesterase [1] and against Acetylcholinesterase [2] were 3.81 µM and 9.42 µM, respectively.
On to `CCOP(=O)(OCC)SCCCCCCCCCN1C(=O)c2ccccc2C1=O`, for which the mortality was 77.6% in the assay on Tetranychus cinnabarinus and 88.3% in the assay with Lipaphis erysimi. Also, the results for the IC50 against Acetylcholinesterase [1] and on Acetylcholinesterase [2] were 37.5 µM and 267 µM, respectively.
The corresponding values for `CCOP(=O)(OCC)SCCCCCCCCN1C(=O)c2ccccc2C1=O` are 85%, 62.5%, 4.5 µM and 13.8 µM.
For the compound `CCOP(=O)(OCC)SCCCCCN1C(=O)c2ccccc2C1=O`, the mortality turned out to be 81.2% in the assay with Tetranychus cinnabarinus and 96.5% in the assay with Lipaphis erysimi. Besides, the IC50 at Acetylcholinesterase [1] is 12.3 µM; on Acetylcholinesterase [2] it was 114 µM.
As for `CCOP(=O)(OCC)SCCCCCCSP(=O)(OCC)OCC`, the mortality came to 92.4% in the assay on Tetranychus cinnabarinus and 95.4% in the assay with Lipaphis erysimi. The IC50 came to 0.87 µM against Acetylcholinesterase [1] and 8.9 µM against Acetylcholinesterase [2].
For `CCOP(=O)(OCC)SCCCCN1C(=O)c2ccccc2C1=O`, the mortality in the assay with Tetranychus cinnabarinus came out at 88.9%; in the assay on Lipaphis erysimi, 97.7%. Further, the IC50 amounted to 9.92 µM against Acetylcholinesterase [1] and 25.8 µM at Acetylcholinesterase [2].
Consider `CCOP(=O)(OCC)SCCCCCCCCCSP(=O)(OCC)OCC`, for which the mortality in the assay with Tetranychus cinnabarinus was 78.6%; in the assay with Lipaphis erysimi it was 100%. The IC50 turned out to be 1.43 µM at Acetylcholinesterase [1] and 197 µM against Acetylcholinesterase [2].
Consider `CCOP(=O)(OCC)SCCCCCCCCCCSP(=O)(OCC)OCC`, for which the mortality was 93.3% in the assay on Tetranychus cinnabarinus and 96.6% in the assay on Lipaphis erysimi. Further, the IC50 on Acetylcholinesterase [1] came to 1.76 µM; against Acetylcholinesterase [2], 224 µM.
In the case of `CCOP(O)(=S)OCC` [O,O-DIETHYL S-HYDROGEN PHOSPHOROTHIOATE], the IC50 on Acetylcholinesterase [1] was above 40000 µM; on Acetylcholinesterase [2], above 25000 µM.
For the compound `CCOP(=S)(OCC)Oc1nc(Cl)c(Cl)cc1Cl` [CHLORPYRIFOS], the mortality with Tetranychus cinnabarinus was 71.1%; in the assay on Lipaphis erysimi, 100%. Moreover, the IC50 at Acetylcholinesterase [1] turned out to be 1.83 µM; against Acetylcholinesterase [2], 9.51 µM.

One may read the mortality as the share of the test organisms that died. Usually IC50 stands for the concentration needed to halve the response being measured.
